Laboratory results from US9408388B2 (Dow Global Technologies LLC, priority 2013, dated 2016).

Key:
Chlorella sp. ATCC 7516 = test: Algal efficacy testing of dry paint film (modified ASTM 5589, 6-well plates); assay type: cell-based; details: 4 weeks
Experimental: (§1) Slurries containing 34.3% carbendazim were post added to a white, acrylic/silicone based outdoor paint free of biocides to give a total active ingredient concentration of 10000 and 1000 ppm respectively. These paints were then diluted with an antimicrobial free acrylic/silicone based paint and mixed to prepare targeted concentrations of antimicrobial compounds for the testing. The total biocides concentrations tested were 125, 250, 500, 1000, 2000 and 5000 ppm. After biocides addition or dilution, the paints were mixed 90 seconds with the horse power shaker (AXEL 75M3372/Agitateur SO-10MI) until uniformity was achieved. Paints containing different antimicrobial compounds at the same levels were mixed together in order to obtain the desired ratio of antimicrobial compounds. After one day, the paints were applied to Schleicher & Schuell filter paper at 280 μm wet film thickness and dried for 3 days at room temperature avoiding direct exposure to sunlight. Square discs (1.6 cm×1.6 cm) were cut out from each panel and were used as the substrate for algal efficacy tests. This sample size allowed for an agar border when the sample disc was placed into the well of the test plate.
(§2) Algal efficacy was tested according to modified ASTM 5589 which is a standard accelerated test method for determining resistance of various coatings (including paints) to algal defacement. To accommodate for high-throughput screening, this method was scaled down from petri dishes to 6-well plates. Bold Modified Basal Freshwater Nutrient Solution was used as growth medium. A single coated filter paper coupon was placed with a pair of sterile forceps at the center of the agar plug (on top) with the painted surface facing upwards. Algal inoculums were prepared by mixing equal concentrations (1×10^6 cfu/ml) and equal volumes of exponentially growing algae cultures.
(§3) Each well that contains a tested coupon was inoculated with 1750 μl of algal suspensions (1×10^6 cfu/ml) making sure that the whole surface (paint film as well as the agar surrounding it) was evenly covered. The plates were incubated at room temp (21° C. -25° C.) with cyclic exposure to light and dark phases, for a period of four weeks.
(§4) At the end of the four week incubation period, the samples were scored for percent inhibition regarding visible algal growth compared to the blank sample (0% inhibition).
(§5) The SI is calculated based on F. C. Kull et.
(§6) The minimal targeted inhibition was set at 75%, meaning a coupon with at least 75% algal growth inhibition was considered as a pass.

[1] = test system: Stichococcus bacillaris SAG 379-1a CCAP 379/1a; test: as above; assay type: cell-based; details: 4 weeks
Experimental: as §1, §2, §3, §4, §5, §6

[2] = pass level 75% inhibition, total biocide in liquid paint

| SMILES | inhibition at 5000 ppm (Chlorella sp. ATCC 7516; 672 h, total conc 5000 ppm, visible algal growth vs blank) [%] | inhibition at 5000 ppm ([1]; Stichococcus bacillaris, 672 h, total conc 5000 ppm, visible algal growth vs blank) [%] | Total conc (concentration used for SI; lowest passing level or highest level without pass) (Chlorella sp. ATCC 7516; [2]) [ppm] | inhibition at 2000 ppm (Chlorella sp. ATCC 7516; 672 h, total conc 2000 ppm, visible algal growth vs blank) [%] | Total conc (concentration used for SI; lowest passing level or highest level without pass) [1, 2] [ppm] | inhibition at 2000 ppm ([1]; Stichococcus bacillaris, 672 h, total conc 2000 ppm, visible algal growth vs blank) [%] |
| --- | --- | --- | --- | --- | --- | --- |
| O=c1[nH]c2c(c(=O)n1C1CCCCC1)CCC2 [Lenacil, 3-cyclohexyl-1,5,6,7-tetrahydrocyclopentapyrimidine-2,4(3H)-dione] | 45 | 65 | – | – | – | – |
| COC(=O)Nc1nc2ccccc2[nH]1 [Carbendazim, methylbenzimidazol-2-ylcarbamate] | – | – | 2000 | 45 | 2000 | 45 |
